Measured values: the supplement of paper PMC10307832

Key:
Assay in all cases: relative viability (nuclei count vs DMSO), 5 days (fraction); higher = more cells survive
[1] = compound: COc1ncc(-c2ccc3nccc(-c4ccnnc4)c3c2)cc1NS(=O)(=O)c1ccc(F)cc1F [Omipalisib] + COc1cc2c(Oc3ccc(NC(=O)C4(C(=O)Nc5ccc(F)cc5)CC4)cc3F)ccnc2cc1OCCCN1CCOCC1 [Foretinib] (partner 0.25 µM)
How it was run: (§1)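 Five library-drug doses in √10 steps were combined with a fixed anchor-drug dose, or a single drug was given alone, by pin tool to lung cancer cell lines in 1536-well plates the day after seeding. Nuclei were stained and counted after 5 days. Relative viability is the nuclei count in treated wells over that in vehicle wells, taken as the median of duplicate plates.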

[2] = compound: COc1ncc(-c2ccc3nccc(-c4ccnnc4)c3c2)cc1NS(=O)(=O)c1ccc(F)cc1F [Omipalisib] + CC(C)C[C@H](NC(=O)[C@H](Cc1ccccc1)NC(=O)c1cnccn1)B(O)O [Bortezomib] (partner 0.002 µM)
How it was run: as §1

[3] = compound: COc1ncc(-c2ccc3nccc(-c4ccnnc4)c3c2)cc1NS(=O)(=O)c1ccc(F)cc1F [Omipalisib] + Nc1ncn([C@H]2C[C@H](O)[C@@H](CO)O2)c(=O)n1 [Decitabine] (partner 2 µM)
How it was run: as §1

[4] = compound: COc1ncc(-c2ccc3nccc(-c4ccnnc4)c3c2)cc1NS(=O)(=O)c1ccc(F)cc1F [Omipalisib] + Cc1cc(Nc2cc(N3CCN(C)CC3)nc(Sc3ccc(NC(=O)C4CC4)cc3)n2)n[nH]1 [Tozasertib] (partner 0.1 µM)
How it was run: as §1

[5] = compound: COc1ncc(-c2ccc3nccc(-c4ccnnc4)c3c2)cc1NS(=O)(=O)c1ccc(F)cc1F [Omipalisib] + COc1cccc2cc(-c3nc([C@H]4CC[C@H](C(=O)O)CC4)n4ncnc(N)c34)[nH]c12 [OSI-027] (partner 0.5 µM)
How it was run: as §1

[6] = compound: COc1ncc(-c2ccc3nccc(-c4ccnnc4)c3c2)cc1NS(=O)(=O)c1ccc(F)cc1F [Omipalisib] + Nc1nc2[nH]cc(CCc3ccc(C(=O)N[C@@H](CCC(=O)O)C(=O)O)cc3)c2c(=O)[nH]1 [Pemetrexed] (partner 0.2 µM)
How it was run: as §1

Cell Line | relative viability ([1]; first compound 0.0003 µM) | relative viability ([1]; first compound 0.003 µM) | relative viability ([1]; first compound 0.03 µM) | relative viability ([2]; first compound 0.0003 µM) | relative viability ([2]; first compound 0.003 µM) | relative viability ([2]; first compound 0.03 µM) | relative viability ([3]; first compound 0.0003 µM) | relative viability ([3]; first compound 0.003 µM) | relative viability ([3]; first compound 0.03 µM) | relative viability ([4]; first compound 0.0003 µM) | relative viability ([4]; first compound 0.003 µM) | relative viability ([4]; first compound 0.03 µM) | relative viability ([5]; first compound 0.0003 µM) | relative viability ([5]; first compound 0.003 µM) | relative viability ([5]; first compound 0.03 µM) | relative viability ([6]; first compound 0.0003 µM) | relative viability ([6]; first compound 0.003 µM) | relative viability ([6]; first compound 0.03 µM)
NCI-H838 | 0.953 | 0.703 | 0.375 | 0.743 | 0.652 | 0.234 | 0.471 | 0.391 | 0.268 | 0.293 | 0.222 | 0.221 | 0.335 | 0.345 | 0.181 | 0.25 | 0.229 | 0.214
NCI-H1355 | 0.764 | 0.643 | 0.416 | 1.16 | 0.925 | 0.375 | 0.366 | 0.326 | 0.242 | 0.493 | 0.409 | 0.21 | 0.377 | 0.238 | 0.237 | 1.01 | 0.868 | 0.52
NCI-H2126 | 1.01 | 0.718 | 0.342 | 1.06 | 0.895 | 0.734 | 0.548 | 0.414 | 0.304 | 0.712 | 0.612 | 0.353 | 0.71 | 0.488 | 0.411 | 0.652 | 0.537 | 0.38
HCC-827 | 1.03 | 0.803 | 0.288 | 1.06 | 1.17 | 0.828 | 0.298 | 0.244 | 0.239 | 0.453 | 0.365 | 0.187 | 0.769 | 0.531 | 0.254 | 0.242 | 0.282 | 0.191
NCI-H661 | 1.06 | 0.999 | 0.783 | 0.69 | 0.595 | 0.314 | 0.522 | 0.453 | 0.422 | 0.366 | 0.388 | 0.37 | 0.661 | 0.582 | 0.344 | 0.925 | 0.9 | 0.761
NCI-H1755 | 0.911 | 0.821 | 0.51 | 0.924 | 0.886 | 0.708 | 0.714 | 0.555 | 0.485 | 0.62 | 0.497 | 0.42 | 0.707 | 0.501 | 0.448 | 0.504 | 0.393 | 0.402
HCC-15 | 0.944 | 0.814 | 0.721 | 0.988 | 0.848 | 0.813 | 0.591 | 0.394 | 0.372 | 0.373 | 0.38 | 0.237 | 0.628 | 0.357 | 0.413 | 0.23 | 0.213 | 0.209
NCI-H2009 | 1.15 | 1.07 | 0.922 | 0.979 | 0.986 | 0.584 | 0.355 | 0.389 | 0.324 | 0.796 | 0.674 | 0.607 | 0.673 | 0.444 | 0.312 | 1.04 | 1.15 | 0.892
NCI-H2023 | 0.908 | 0.433 | 0.233 | 0.906 | 0.487 | 0.301 | 0.177 | 0.215 | 0.16 | 0.309 | 0.282 | 0.151 | 0.344 | 0.169 | 0.0988 | 0.208 | 0.197 | 0.139
NCI-H2405 | 1.01 | 0.756 | 0.39 | 0.895 | 0.909 | 0.578 | 0.701 | 0.482 | 0.308 | 0.76 | 0.648 | 0.359 | 0.661 | 0.359 | 0.296 | 1.12 | 0.718 | 0.444
HCC-78 | 0.436 | 0.433 | 0.266 | 0.338 | 0.32 | 0.252 | 0.623 | 0.462 | 0.344 | 0.327 | 0.328 | 0.21 | 0.37 | 0.35 | 0.288 | 0.88 | 0.927 | 0.922
NCI-H441 | 0.761 | 0.657 | 0.434 | 0.418 | 0.362 | 0.259 | 0.24 | 0.206 | 0.227 | 0.683 | 0.451 | 0.238 | 0.642 | 0.35 | 0.26 | 0.294 | 0.283 | 0.237
LCLC-97TM1 | 0.934 | 0.468 | 0.189 | 0.589 | 0.477 | 0.146 | 0.216 | 0.168 | 0.161 | 0.169 | 0.119 | 0.0744 | 0.589 | 0.251 | 0.2 | 0.191 | 0.146 | 0.14
LCLC-103H | 0.676 | 0.418 | 0.236 | 0.943 | 0.891 | 0.732 | 0.69 | 0.639 | 0.4 | 0.406 | 0.361 | 0.18 | 0.436 | 0.354 | 0.313 | 0.503 | 0.411 | 0.405
NCI-H2087 | 1.17 | 0.809 | 0.557 | 0.851 | 0.867 | 0.736 | 0.327 | 0.192 | 0.125 | 0.243 | 0.224 | 0.126 | 0.532 | 0.309 | 0.251 | 0.646 | 0.558 | 0.597
NCI-H1734 | 0.754 | 0.446 | 0.268 | 0.937 | 0.544 | 0.276 | 0.442 | 0.331 | 0.347 | 0.243 | 0.233 | 0.221 | 0.561 | 0.275 | 0.239 | 0.419 | 0.431 | 0.402
EMC-BAC-2 | 0.91 | 0.637 | 0.482 | 0.968 | 0.862 | 0.747 | 0.664 | 0.663 | 0.654 | 0.266 | 0.27 | 0.261 | 0.347 | 0.266 | 0.239 | 0.481 | 0.463 | 0.418
LU99A | 0.718 | 0.464 | 0.327 | 1.01 | 0.728 | 0.495 | 0.912 | 0.519 | 0.311 | 0.289 | 0.233 | 0.215 | 0.315 | 0.213 | 0.239 | 0.186 | 0.192 | 0.191
NCI-H3122 | 0.942 | 0.802 | 0.522 | 1.01 | 1.04 | 0.818 | 0.319 | 0.258 | 0.139 | 0.348 | 0.26 | 0.172 | 0.863 | 0.376 | 0.216 | 0.214 | 0.192 | 0.202
